In PubChem BioAssay AID743137 (The Scripps Research Institute Molecular Screening Center, 2013):
Activity calls are given as the source filed them.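 The calls were made as follows: active = LYPLA1 and LYPLA2 each at a ratio of 0.5 or below, with under two anti-target hydrolases also at that level; inactive = the rest.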

Legend:
Assay in all cases: proteome-wide serine hydrolase selectivity of LYPLA inhibitors, late-stage follow-up, selectivity assay for LYPLA1/LYPLA2 inhibitor project, cell-based, HeLa, LC-MS, SILAC, powders (AID 743137)
[1] = target: Acyl-coenzyme A thioesterase 2, mitochondrial (Homo sapiens) (UniProt P49753); conditions: HeLa SILAC ABPP, FP-biotin LC-MS, serine hydrolase panel; ACOT2; at 1 µM; active compounds read low
[2] = target: Lysosomal phospholipase A and acyltransferase (Homo sapiens) (UniProt Q8NCC3); conditions: HeLa SILAC ABPP, FP-biotin LC-MS, serine hydrolase panel; PLA2G15; at 1 µM; active compounds read low
[3] = target: Platelet-activating factor acetylhydrolase IB subunit alpha1 (Homo sapiens) (UniProt Q15102); conditions: HeLa SILAC ABPP, FP-biotin LC-MS, serine hydrolase panel; PAFAH1B3; at 1 µM; active compounds read low
[4] = test system: MAGL (MGLL); conditions: HeLa SILAC ABPP, FP-biotin LC-MS, serine hydrolase panel, at 1 µM, active compounds read low
[5] = test system: LYPLAL1; conditions: HeLa SILAC ABPP, FP-biotin LC-MS, serine hydrolase panel, at 1 µM, active compounds read low
[6] = target: sn-1-specific diacylglycerol lipase ABHD11 (Homo sapiens) (UniProt Q8NFV4); conditions: HeLa SILAC ABPP, FP-biotin LC-MS, serine hydrolase panel, at 1 µM, active compounds read low
[7] = test system: PNPLA6; conditions: HeLa SILAC ABPP, FP-biotin LC-MS, serine hydrolase panel, at 1 µM, active compounds read low
[8] = target: PNPLA4 (UniProt P41247); conditions: HeLa SILAC ABPP, FP-biotin LC-MS, serine hydrolase panel, at 1 µM, active compounds read low
[9] = target: Prolyl endopeptidase FAP (Homo sapiens) (UniProt Q12884); conditions: HeLa SILAC ABPP, FP-biotin LC-MS, serine hydrolase panel, at 1 µM, active compounds read low
[10] = target: Platelet-activating factor acetylhydrolase 2, cytoplasmic (Homo sapiens) (UniProt Q99487); conditions: HeLa SILAC ABPP, FP-biotin LC-MS, serine hydrolase panel; PAFAH2; at 1 µM; active compounds read low
[11] = test system: FAM108B1; conditions: HeLa SILAC ABPP, FP-biotin LC-MS, serine hydrolase panel, at 1 µM, active compounds read low
[12] = target: Acylamino-acid-releasing enzyme (Homo sapiens) (UniProt P13798); conditions: HeLa SILAC ABPP, FP-biotin LC-MS, serine hydrolase panel; APEH; at 1 µM; active compounds read low
[13] = test system: ABHD12; conditions: HeLa SILAC ABPP, FP-biotin LC-MS, serine hydrolase panel, at 1 µM, active compounds read low
[14] = target: FAM111B (UniProt Q6SJ93); conditions: HeLa SILAC ABPP, FP-biotin LC-MS, serine hydrolase panel, at 1 µM, active compounds read low
[15] = target: Platelet-activating factor acetylhydrolase IB subunit alpha2 (Homo sapiens) (UniProt P68402); conditions: HeLa SILAC ABPP, FP-biotin LC-MS, serine hydrolase panel; PAFAH1B2; at 1 µM; active compounds read low
[16] = test system: ABHD10; conditions: HeLa SILAC ABPP, FP-biotin LC-MS, serine hydrolase panel, at 1 µM, active compounds read low
[17] = test system: ABHD6; conditions: HeLa SILAC ABPP, FP-biotin LC-MS, serine hydrolase panel, at 1 µM, active compounds read low
[18] = test system: NCEH1; conditions: HeLa SILAC ABPP, FP-biotin LC-MS, serine hydrolase panel, at 1 µM, active compounds read low
[19] = target: Prolyl endopeptidase-like (Homo sapiens) (UniProt Q4J6C6); conditions: HeLa SILAC ABPP, FP-biotin LC-MS, serine hydrolase panel; PREPL; at 1 µM; active compounds read low
[20] = target: Lysosomal Pro-X carboxypeptidase (Homo sapiens) (UniProt P42785); conditions: HeLa SILAC ABPP, FP-biotin LC-MS, serine hydrolase panel; PRCP; at 1 µM; active compounds read low
[21] = target: Acyl-protein thioesterase 2 (Homo sapiens) (UniProt O95372); conditions: HeLa SILAC ABPP, FP-biotin LC-MS, serine hydrolase panel; LYPLA2; at 1 µM; active compounds read low
[22] = test system: ESD; conditions: HeLa SILAC ABPP, FP-biotin LC-MS, serine hydrolase panel, at 1 µM, active compounds read low
[23] = target: Dipeptidyl peptidase 8 (Homo sapiens) (UniProt Q6V1X1); conditions: HeLa SILAC ABPP, FP-biotin LC-MS, serine hydrolase panel; DPP8; at 1 µM; active compounds read low
[24] = target: Lysosomal protective protein (Homo sapiens) (UniProt P10619); conditions: HeLa SILAC ABPP, FP-biotin LC-MS, serine hydrolase panel; CTSA; at 1 µM; active compounds read low
[25] = target: Acyl-protein thioesterase 1 (Homo sapiens) (UniProt O75608); conditions: HeLa SILAC ABPP, FP-biotin LC-MS, serine hydrolase panel; LYPLA1; at 1 µM; active compounds read low
[26] = test system: SCPEP1; conditions: HeLa SILAC ABPP, FP-biotin LC-MS, serine hydrolase panel, at 1 µM, active compounds read low

Sequence of Lysosomal phospholipase A and acyltransferase (Homo sapiens) (Q8NCC3 whole entry, looked up): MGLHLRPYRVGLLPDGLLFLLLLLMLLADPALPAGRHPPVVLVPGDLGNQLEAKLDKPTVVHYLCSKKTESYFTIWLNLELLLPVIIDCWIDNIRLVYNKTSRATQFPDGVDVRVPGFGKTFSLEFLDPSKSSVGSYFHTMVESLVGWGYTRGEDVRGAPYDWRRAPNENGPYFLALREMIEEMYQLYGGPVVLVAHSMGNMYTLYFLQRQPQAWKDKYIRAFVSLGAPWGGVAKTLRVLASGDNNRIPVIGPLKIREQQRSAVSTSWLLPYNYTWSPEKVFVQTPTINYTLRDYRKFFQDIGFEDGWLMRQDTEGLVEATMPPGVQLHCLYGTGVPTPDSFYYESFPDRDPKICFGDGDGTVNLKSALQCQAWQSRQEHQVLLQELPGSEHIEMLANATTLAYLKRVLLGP
Sequence of Lysosomal Pro-X carboxypeptidase (Homo sapiens) (P42785 whole entry, looked up): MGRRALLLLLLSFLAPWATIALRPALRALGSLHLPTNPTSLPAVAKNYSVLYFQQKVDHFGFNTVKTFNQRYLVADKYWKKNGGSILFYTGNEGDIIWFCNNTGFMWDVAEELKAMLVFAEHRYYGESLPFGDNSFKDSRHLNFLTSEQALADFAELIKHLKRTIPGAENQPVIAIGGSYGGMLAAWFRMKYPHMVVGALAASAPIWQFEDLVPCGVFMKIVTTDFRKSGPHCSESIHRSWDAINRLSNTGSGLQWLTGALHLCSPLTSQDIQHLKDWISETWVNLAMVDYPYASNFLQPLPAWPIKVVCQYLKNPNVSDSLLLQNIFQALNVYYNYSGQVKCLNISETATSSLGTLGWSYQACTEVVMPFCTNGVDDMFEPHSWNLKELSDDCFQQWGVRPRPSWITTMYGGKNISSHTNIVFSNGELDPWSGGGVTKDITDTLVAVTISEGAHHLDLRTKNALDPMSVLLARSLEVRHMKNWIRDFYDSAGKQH
Sequence of PNPLA4 (P41247 whole entry, looked up): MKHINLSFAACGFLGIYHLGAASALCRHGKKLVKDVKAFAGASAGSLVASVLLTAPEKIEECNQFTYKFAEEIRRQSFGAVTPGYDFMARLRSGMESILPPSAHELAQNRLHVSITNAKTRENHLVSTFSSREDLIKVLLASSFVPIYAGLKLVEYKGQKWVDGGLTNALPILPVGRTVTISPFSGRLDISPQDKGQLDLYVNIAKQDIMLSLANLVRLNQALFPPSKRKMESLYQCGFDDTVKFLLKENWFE
Sequence of Platelet-activating factor acetylhydrolase IB subunit alpha2 (Homo sapiens) (P68402 whole entry, looked up): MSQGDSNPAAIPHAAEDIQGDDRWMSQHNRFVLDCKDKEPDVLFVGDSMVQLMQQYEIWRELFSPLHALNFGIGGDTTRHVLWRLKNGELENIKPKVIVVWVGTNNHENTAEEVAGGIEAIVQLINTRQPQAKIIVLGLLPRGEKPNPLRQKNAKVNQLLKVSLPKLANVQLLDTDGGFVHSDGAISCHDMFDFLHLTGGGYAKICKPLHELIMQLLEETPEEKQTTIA
Sequence of Acyl-coenzyme A thioesterase 2, mitochondrial (Homo sapiens) (P49753 whole entry, looked up): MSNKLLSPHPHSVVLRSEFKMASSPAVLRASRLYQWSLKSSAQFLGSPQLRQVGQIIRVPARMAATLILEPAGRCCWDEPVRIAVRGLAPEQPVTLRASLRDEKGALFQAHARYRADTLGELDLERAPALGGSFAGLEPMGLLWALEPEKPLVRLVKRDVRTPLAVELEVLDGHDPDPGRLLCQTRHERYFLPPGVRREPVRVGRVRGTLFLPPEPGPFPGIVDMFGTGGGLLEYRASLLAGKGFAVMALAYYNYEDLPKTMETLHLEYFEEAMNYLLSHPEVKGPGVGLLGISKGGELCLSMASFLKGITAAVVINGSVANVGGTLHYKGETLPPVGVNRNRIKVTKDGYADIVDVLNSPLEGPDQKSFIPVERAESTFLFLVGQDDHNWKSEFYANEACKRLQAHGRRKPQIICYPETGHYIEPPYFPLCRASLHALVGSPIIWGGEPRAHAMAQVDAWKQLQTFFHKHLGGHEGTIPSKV
Sequence of Acyl-protein thioesterase 2 (Homo sapiens) (O95372 whole entry, looked up): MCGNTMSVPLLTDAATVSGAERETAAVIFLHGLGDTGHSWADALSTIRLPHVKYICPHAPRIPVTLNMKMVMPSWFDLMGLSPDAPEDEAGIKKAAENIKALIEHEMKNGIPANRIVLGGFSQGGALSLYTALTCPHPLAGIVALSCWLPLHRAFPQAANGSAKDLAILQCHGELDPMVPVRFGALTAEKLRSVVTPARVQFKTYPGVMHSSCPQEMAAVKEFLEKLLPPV
Sequence of Lysosomal protective protein (Homo sapiens) (P10619 whole entry, looked up): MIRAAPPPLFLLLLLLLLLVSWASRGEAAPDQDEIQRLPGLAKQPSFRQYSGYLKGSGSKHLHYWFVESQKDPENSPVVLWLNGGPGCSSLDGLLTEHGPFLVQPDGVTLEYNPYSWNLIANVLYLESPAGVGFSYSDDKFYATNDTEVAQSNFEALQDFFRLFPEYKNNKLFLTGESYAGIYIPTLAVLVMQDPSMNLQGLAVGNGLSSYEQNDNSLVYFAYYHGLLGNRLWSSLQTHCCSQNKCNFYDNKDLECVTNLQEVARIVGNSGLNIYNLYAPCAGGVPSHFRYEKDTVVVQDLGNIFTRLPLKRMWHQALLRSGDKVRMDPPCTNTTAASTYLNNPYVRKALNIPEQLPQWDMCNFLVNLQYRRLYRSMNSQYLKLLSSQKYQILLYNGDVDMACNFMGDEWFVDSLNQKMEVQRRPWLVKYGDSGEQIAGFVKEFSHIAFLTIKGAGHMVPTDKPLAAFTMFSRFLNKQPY
Sequence of Acyl-protein thioesterase 1 (Homo sapiens) (O75608 whole entry, looked up): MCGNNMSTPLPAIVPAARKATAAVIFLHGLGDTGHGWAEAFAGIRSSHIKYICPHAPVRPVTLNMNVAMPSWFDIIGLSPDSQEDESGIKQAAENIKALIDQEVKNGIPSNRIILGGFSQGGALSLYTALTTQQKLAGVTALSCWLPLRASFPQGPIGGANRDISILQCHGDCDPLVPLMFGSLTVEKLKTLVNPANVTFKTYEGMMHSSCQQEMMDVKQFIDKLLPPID
Sequence of Acylamino-acid-releasing enzyme (Homo sapiens) (P13798 whole entry, looked up): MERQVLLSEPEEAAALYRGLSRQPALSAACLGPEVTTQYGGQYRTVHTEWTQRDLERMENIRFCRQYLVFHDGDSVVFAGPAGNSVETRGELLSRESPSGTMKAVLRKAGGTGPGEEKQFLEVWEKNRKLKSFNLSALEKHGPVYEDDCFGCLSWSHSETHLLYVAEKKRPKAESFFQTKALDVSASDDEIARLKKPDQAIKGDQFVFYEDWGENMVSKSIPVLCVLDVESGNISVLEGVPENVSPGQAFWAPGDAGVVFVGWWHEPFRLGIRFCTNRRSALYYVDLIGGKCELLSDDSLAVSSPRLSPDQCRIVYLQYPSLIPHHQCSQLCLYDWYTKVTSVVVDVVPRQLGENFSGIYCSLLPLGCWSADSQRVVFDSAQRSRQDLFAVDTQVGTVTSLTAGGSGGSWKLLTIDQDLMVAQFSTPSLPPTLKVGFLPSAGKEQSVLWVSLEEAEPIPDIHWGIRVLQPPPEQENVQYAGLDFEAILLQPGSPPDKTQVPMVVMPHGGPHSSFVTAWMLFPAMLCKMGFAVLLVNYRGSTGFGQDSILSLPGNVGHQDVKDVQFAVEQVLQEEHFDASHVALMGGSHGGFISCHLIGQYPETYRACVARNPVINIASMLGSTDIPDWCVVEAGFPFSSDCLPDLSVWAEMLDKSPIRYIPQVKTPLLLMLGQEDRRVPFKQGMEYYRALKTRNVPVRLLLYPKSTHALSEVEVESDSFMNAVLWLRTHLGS
Sequence of Platelet-activating factor acetylhydrolase IB subunit alpha1 (Homo sapiens) (Q15102 whole entry, looked up): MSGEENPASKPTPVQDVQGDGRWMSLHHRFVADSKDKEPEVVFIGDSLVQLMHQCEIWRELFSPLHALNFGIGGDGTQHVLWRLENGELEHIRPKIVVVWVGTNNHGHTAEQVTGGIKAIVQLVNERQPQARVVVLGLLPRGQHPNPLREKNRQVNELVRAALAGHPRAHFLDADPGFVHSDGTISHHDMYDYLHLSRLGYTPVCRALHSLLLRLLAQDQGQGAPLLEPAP
Sequence of Prolyl endopeptidase FAP (Homo sapiens) (Q12884 whole entry, looked up): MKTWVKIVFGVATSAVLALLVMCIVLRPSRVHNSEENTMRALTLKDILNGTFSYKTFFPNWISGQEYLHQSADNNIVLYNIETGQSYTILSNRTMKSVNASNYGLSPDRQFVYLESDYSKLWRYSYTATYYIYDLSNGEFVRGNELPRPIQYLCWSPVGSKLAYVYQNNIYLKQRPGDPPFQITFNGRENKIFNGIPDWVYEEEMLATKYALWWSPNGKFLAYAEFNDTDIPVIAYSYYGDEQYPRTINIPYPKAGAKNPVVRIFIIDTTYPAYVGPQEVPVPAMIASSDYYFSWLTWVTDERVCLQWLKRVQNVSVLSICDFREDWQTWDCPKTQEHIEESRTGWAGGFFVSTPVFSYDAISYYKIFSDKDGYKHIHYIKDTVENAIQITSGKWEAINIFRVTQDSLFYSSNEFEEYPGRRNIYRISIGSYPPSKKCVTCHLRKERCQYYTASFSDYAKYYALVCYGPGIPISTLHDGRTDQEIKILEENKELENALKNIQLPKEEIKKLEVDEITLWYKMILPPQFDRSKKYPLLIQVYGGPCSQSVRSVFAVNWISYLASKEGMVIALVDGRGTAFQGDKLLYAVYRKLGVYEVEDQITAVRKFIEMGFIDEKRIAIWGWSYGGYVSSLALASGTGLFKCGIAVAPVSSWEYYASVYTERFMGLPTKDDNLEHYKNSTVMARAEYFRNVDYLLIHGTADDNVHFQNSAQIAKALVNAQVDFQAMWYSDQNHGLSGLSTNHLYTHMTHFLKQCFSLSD
Sequence of sn-1-specific diacylglycerol lipase ABHD11 (Homo sapiens) (Q8NFV4 whole entry, looked up): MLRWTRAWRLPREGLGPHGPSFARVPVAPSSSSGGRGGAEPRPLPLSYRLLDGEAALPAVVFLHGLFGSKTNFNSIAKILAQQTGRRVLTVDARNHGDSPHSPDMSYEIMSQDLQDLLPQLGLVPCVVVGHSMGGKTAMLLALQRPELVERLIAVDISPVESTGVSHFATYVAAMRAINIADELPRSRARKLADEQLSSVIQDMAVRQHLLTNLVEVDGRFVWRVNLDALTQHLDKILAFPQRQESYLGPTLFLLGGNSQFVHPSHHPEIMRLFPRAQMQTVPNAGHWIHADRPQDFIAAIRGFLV

inhibitor/DMSO ratio [1]: 1.4 (inactive) | inhibitor/DMSO ratio [2]: 1.4 (inactive) | inhibitor/DMSO ratio [3]: 1.4 (inactive) | inhibitor/DMSO ratio [4]: 0.57 (inactive) | inhibitor/DMSO ratio [5]: 1.7 (inactive) | inhibitor/DMSO ratio [6]: 1.3 (inactive) | inhibitor/DMSO ratio [7]: 1.2 (inactive) | inhibitor/DMSO ratio [8]: 1.2 (inactive) | inhibitor/DMSO ratio [9]: 1 (inactive) | inhibitor/DMSO ratio [10]: 1.4 (inactive) | inhibitor/DMSO ratio [11]: 0.98 (inactive) | inhibitor/DMSO ratio [12]: 1.3 (inactive) | inhibitor/DMSO ratio [13]: 0.83 (inactive) | inhibitor/DMSO ratio [14]: 1.4 (inactive) | inhibitor/DMSO ratio [15]: 1.2 (inactive) | inhibitor/DMSO ratio [16]: 1.3 (inactive) | inhibitor/DMSO ratio [17]: 0.05 | inhibitor/DMSO ratio [18]: 0.98 (inactive) | inhibitor/DMSO ratio [19]: 1.5 (inactive) | inhibitor/DMSO ratio [20]: 0.93 (inactive) | inhibitor/DMSO ratio [21]: 0.084 | inhibitor/DMSO ratio [22]: 1.2 (inactive) | inhibitor/DMSO ratio [23]: 1.4 (inactive) | inhibitor/DMSO ratio [24]: 1.1 (inactive) | inhibitor/DMSO ratio [25]: 0.05 | inhibitor/DMSO ratio [26]: 0.93 (inactive)
SMILES: O=C(ON1C(=O)C2CN(C(=O)N3CCOCC3)CCN2C1=O)N1CCC(CCc2ccc(Cl)cc2)CC1 (stereo unspecified)
